Where two headings read alike, the source gives them in different places.
Key:
HepG2 = assay: Cytotoxicity screening in HepG2 (CellTiter Glo, fluorescence microscopy); type: cell-based; settings: Homo sapiens, 48 hours
Method: (§1) To evaluate the cytotoxicity of selected compounds, cell viability assays (CellTiter Glo) were conducted. Each compound (compound 21 or compound 37) was plated in triplicate starting at their respective stock concentration. They were serially diluted column-wise for ten 3× dilutions using DMSO as the diluent. Staurosporine was used as positive control for DRC (dose response curve), and was plated starting at 1.25 mM. This plate was used as a source plate to make the assay plates by transferring 0.1 μl into 25 μl assay volume to reach the right working concentration for each compound. HepG2 and MRC5 were plated at a density of 1500 cells/25 μl in well in the assay plate and allowed to settle overnight. 0.1 μL of compounds was then transferred from the source plate, into the cell assay plates. The cells were left to incubate with the compounds for 48 hours, after which, 25 μL of Promega Cell Titer-Glo was added to each well, and allowed to incubate at room temperature with shaking for 20 minutes. RLU's (Relative Light Units) for each well were then recorded on a BioTek Synergy NEO. Fluorescence microscopy was also used to evaluate the cytotoxicity of selected compounds. Cells were plated at a density of 1500 cells/25 μl in well in a 384 wells plate the day before incubation with the drugs. The following day, 0.1 μl of the source plate are added to the assay plate. Then, 25 μl of a fluorophores mixture containing Hoechst 33342, Syto17 diluted in Eagle's Minimum Essential Medium (EMEM) was added to each well. Plates are read after 48 hours of incubation in the ImageXpress instrument (Molecular Devices) using the appropriate filters.

[1] = Cytotoxicity screening in MRC5 (CellTiter Glo, fluorescence microscopy); type: cell-based; settings: human, MRC5 cells
Method: as §1

[2] = Caco-2 bi-directional permeability; type: in vitro ADME; settings: human, Caco-2, pH 7.4
Method: To evaluate the bi-directional Caco-2 permeability of compounds 21 and 37, Caco-2 cells were grown in Dulbecco's Modified Eagle Medium (DMEM) (20% Fetal bovine serum (FBS)) until 85-90% confluence. After attaining required confluence, cells were trypsinized and seeded into 24 well millcell plates at a density of 0.6×10^5 cells/insert. The plates were maintained for 21 days at 37° C. in CO2 incubator with change of medium every alternative day. Monolayer integrity was monitored by measuring Trans-epithelial electrical resistance (TEER) from day 15. Caco-2 cell monolayer was washed twice with HBSS and incubated for 30 min in CO2 incubator. TEER values were measured and wells showing TEER values above 230 ohms·cm2 were taken for experiments. Bi-directional permeability study was initiated by adding appropriate volume of HBSS containing the test compounds or probe P-gp substrate loperamide to either the apical (A-B transport) or basal side (B-A transport) of the monolayer. At selected time points (0, 15, 30, 60 and 90 mins) an aliquot of 50 μL was collected from the receiver compartment for determination of test compound concentrations. The volume withdrawn was replaced immediately with plain HBSS buffer (pH 7.4). TEER was measure at the end of the experiment to test the post experiment monolayer integrity. […]

[3] = Metabolic stability in mice liver microsomes (MLM), 0.25 mg/mL; type: in vitro ADME; settings: mouse, pH 7.4, 1 μM compound, 0.25 mg/mL microsomes, NADPH, read-out: microsomal stability (t1/2, mouse): 0.25 mg/mL hepatic microsomes
Method: To evaluate the metabolic stability of compounds 21 and 37 in mice liver microsomes (MLM), a 1120 μL aliquot of potassium phosphate buffer (50 mM, pH 7.4) containing mice liver microsomes (0.357 mg/mL) was added to individual 2 mL tubes (final concentration 0.25 mg/mL). Imipramine in MLM was run as positive controls. Test compounds (compound 21 or compound 37) and positive control compounds (1 mM DMSO stocks) were directly spiked into respective tubes to prepare a concentration of 1.428 μM (final concentration 1 μM). From the above mix, 70 μL was added to individual wells of 96 well reaction plates and pre-incubated in a 37° C. water bath for 5 min. All the reactions were initiated by adding 30 μL of 3.33 mM NADPH (final concentration 1 mM). Reactions without NADPH and heat inactivated microsomes minus NADPH (0 min and 60 min) were also incubated to rule out non-NADPH metabolism or chemical instability in the incubation buffer. All reactions were terminated using 100 μL of ice-cold acetonitrile containing internal standard (glipizide—2 μM) at 0, 5, 15 and 60 min. The plates were centrifuged at 4000 RPM for 15 min and 100 μL aliquots were submitted for analysis by LC-M/MS. Samples were monitored for parent compound disappearance in Multiple reaction monitoring (MRM) mode using LC-MS/MS.

[4] = read-out: HepG2 IC50, Cell Count
[5] = read-out: HepG2 IC50, Cellular ATP
[6] = read-out: HepG2 IC50, Membrane Integrity
[7] = read-out: MRC5 IC50, Cell Count
[8] = read-out: MRC5 IC50, Cellular ATP
[9] = read-out: MRC5 IC50, Membrane Integrity

| efflux ratio at 90 min [2] | half-life at 1 μM [3] | SMILES | IC50 (HepG2; [4]) | IC50 (HepG2; [5]) | IC50 (HepG2; [6]) | IC50 at 48 h [1, 7] | IC50 at 48 h [1, 8] | IC50 at 48 h [1, 9] |
| --- | --- | --- | --- | --- | --- | --- | --- | --- |
| 24.9 | 46 min | CN(C)CC#Cc1cccc(-c2nc(C(=O)NCc3ccc4c(c3)OCO4)cc3c2[C@@H](CCO)N([S@+]([O-])C(C)(C)C)C3)c1 [compound 21, (R)-N-(Benzo[d][1,3]dioxol-5-ylmethyl)-2-((R)-tert-butylsulfinyl)-4-(3-(3-(dimethyl-amino)prop-1-yn-1-yl)phenyl)-3-(2-hydroxyethyl)-2,3-dihydro-1H-pyrrolo[3,4-c]pyridine-6-carboxamide] | 51.3 µM | 52.5 µM | 62.1 µM | 63.7 µM | 44.7 µM | 24.4 µM |
| 13.2 | 13 min | CN(C)CC#Cc1cccc(-c2nc(C(=O)N[C@@H]3CCN(Cc4ccccc4)C3)cc3c2[C@@H](CCO)N([S@+]([O-])C(C)(C)C)C3)c1 [compound 37, (R)-N-((R)-1-Benzylpyrrolidin-3-yl)-2-((R)-tert-butylsulfinyl)-4-(3-(3-(dimethylamino)prop-1-yn-1-yl)phenyl)-3-(2-hydroxyethyl)-2,3-dihydro-1H-pyrrolo[3,4-c]pyridine-6-carboxamide] | 56.2 µM | 54.2 µM | 90.6 µM | 64.2 µM | 54.1 µM | 13.4 µM |
